Test results reported in ChEMBL document CHEMBL1201862, “PubChem BioAssay data set” (2004).
The source made the active and inactive calls.

Legend:
Type in all cases: functional
[1] = cytotoxicity toward NIH3T3 fibroblasts, dose response, counter-screen, cell-based, ATP luminescence, mouse fibroblasts (AID 2010);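 note: cells exposed to compound for about 90 hours before reading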
Hexokinase HKDC1 = target: T1, Hexokinase HKDC1 (Homo sapiens, UniProt Q2TB90); assay: HKDC1 hexokinase inhibitors, dose response, biochemical, W721R variant (AID 504729)
T1 sequence (Q2TB90 whole entry): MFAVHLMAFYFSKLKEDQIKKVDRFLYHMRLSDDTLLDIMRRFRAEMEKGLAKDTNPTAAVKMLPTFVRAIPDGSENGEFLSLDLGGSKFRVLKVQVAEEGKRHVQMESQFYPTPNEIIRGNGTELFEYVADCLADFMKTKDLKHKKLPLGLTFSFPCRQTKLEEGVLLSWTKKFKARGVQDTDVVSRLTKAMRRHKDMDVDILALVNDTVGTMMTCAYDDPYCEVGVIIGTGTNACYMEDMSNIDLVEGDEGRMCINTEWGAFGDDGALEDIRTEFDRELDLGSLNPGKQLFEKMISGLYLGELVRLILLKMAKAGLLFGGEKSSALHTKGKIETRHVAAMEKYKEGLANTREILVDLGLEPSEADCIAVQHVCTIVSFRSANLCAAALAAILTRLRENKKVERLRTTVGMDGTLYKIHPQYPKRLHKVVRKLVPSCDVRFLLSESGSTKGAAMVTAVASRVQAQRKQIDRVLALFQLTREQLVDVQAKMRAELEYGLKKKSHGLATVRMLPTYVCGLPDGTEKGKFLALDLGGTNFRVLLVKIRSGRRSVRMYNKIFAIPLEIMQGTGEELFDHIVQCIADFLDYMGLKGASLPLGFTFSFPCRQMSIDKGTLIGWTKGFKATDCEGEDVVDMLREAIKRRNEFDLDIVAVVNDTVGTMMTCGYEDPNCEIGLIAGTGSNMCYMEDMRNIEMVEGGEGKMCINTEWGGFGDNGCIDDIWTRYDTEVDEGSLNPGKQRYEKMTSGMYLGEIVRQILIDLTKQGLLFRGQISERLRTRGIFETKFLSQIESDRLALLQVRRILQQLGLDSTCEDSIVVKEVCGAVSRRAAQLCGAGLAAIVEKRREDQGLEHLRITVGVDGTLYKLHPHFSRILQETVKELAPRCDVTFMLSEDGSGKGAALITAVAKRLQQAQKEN

[2] = target: T2, Sentrin-specific protease 7 (Homo sapiens, UniProt Q9BQF6);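 note: Luminescence-based dose-response confirmation of ultra-high-throughput screening hits, measuring inhibition of SENP7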
T2 sequence (Q9BQF6 whole entry): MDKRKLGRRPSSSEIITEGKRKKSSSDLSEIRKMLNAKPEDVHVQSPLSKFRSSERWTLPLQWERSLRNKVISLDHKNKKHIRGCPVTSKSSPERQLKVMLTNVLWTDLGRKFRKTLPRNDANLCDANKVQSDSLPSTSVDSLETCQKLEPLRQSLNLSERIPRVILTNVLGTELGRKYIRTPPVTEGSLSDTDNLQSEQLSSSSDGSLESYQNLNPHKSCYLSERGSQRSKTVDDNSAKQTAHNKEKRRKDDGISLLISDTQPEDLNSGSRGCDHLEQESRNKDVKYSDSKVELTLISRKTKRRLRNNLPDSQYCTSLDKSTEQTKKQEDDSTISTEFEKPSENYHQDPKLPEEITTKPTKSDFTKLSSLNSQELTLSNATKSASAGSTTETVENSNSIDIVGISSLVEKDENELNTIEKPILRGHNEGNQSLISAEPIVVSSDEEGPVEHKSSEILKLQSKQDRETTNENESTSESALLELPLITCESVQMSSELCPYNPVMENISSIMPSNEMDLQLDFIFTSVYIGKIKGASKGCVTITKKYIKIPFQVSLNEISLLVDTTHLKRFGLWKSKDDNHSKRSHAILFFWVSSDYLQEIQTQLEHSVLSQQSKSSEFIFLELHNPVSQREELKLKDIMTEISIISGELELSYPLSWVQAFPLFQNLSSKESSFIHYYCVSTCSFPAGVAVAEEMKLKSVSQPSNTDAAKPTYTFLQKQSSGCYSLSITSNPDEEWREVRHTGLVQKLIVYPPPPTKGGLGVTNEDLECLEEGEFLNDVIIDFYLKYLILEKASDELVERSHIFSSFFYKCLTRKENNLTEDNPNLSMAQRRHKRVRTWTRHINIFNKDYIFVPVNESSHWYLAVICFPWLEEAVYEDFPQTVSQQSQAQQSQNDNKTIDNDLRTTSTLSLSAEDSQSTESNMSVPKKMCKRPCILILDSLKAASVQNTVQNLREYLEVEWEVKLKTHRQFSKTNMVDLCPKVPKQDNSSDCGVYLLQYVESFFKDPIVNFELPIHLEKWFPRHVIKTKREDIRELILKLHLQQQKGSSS

[3] = target: T3, Sentrin-specific protease 6 (Homo sapiens, UniProt Q9GZR1);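 note: Luminescence-based dose-response confirmatory assay of SENP6 inhibition, following up an ultra-high-throughput screen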
T3 sequence (Q9GZR1 whole entry): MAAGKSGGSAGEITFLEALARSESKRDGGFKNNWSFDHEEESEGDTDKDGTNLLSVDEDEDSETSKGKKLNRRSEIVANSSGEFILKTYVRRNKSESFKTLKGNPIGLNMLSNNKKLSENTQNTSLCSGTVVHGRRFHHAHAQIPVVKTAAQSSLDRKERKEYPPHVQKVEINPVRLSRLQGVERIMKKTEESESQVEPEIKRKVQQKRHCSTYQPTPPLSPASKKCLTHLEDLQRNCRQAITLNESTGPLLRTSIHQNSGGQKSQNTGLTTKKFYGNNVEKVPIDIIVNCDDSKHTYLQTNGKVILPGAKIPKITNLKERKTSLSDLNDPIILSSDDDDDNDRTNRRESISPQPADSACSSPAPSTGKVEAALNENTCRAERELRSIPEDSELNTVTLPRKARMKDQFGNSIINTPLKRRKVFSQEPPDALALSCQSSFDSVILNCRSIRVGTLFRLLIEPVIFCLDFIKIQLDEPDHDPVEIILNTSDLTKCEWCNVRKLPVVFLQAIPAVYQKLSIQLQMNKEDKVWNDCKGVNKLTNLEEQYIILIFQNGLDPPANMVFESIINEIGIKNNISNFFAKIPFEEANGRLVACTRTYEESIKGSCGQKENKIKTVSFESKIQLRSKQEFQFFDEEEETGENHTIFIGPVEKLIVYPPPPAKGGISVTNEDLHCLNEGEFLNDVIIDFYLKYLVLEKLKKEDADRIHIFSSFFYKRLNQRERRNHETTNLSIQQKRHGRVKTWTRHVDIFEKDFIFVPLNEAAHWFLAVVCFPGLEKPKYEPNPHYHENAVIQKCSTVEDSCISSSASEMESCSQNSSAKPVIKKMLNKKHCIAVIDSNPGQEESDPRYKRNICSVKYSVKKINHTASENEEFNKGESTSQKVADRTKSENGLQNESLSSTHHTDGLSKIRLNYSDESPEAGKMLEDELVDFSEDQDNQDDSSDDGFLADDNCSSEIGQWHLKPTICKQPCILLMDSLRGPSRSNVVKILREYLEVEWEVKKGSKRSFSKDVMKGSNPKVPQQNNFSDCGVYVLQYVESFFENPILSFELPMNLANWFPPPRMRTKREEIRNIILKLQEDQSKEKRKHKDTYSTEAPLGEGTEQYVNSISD

## CCCC(=O)NC(c1ccccc1OC)c1ccc2cccnc2c1O (stereo not drawn)
[1]
  EC50: 1550 nM (active)

## COC(=O)[C@@H]1[C@@H](C(=O)OC)C2(c3ccccc3-c3ccccc32)N(c2ccc(Cl)cc2)N1C#N
Hexokinase HKDC1
  IC50: 20400 nM (inactive)
[1]
  EC50: 6870 nM (active)

## COc1ccc(OC)c(Nc2cc3ccccc3c(O)n2)c1
[2]
  IC50: 2190 nM (active)
[3]
  IC50: < 1550 nM (active)

## O=C(O)c1ccc(NC2=C/C(=N/S(=O)(=O)c3ccccc3)c3ccccc3C2=O)cc1
Hexokinase HKDC1
  IC50: 2740 nM (active)
[2]
  IC50: 2060 nM (active)
[3]
  IC50: 743 nM (active)
